From ChEMBL document CHEMBL3853345, “Gabosines P and Q, new carbasugars from Streptomyces sp. and their α-glucosidase inhibitory activity” (Bioorg Med Chem Lett, 2016)

Tests used:
[1] = Inhibition of alpha-glucosidase (unknown origin) assessed as reduction in PNP release using PNPG as substrate preincubated for 10 mins followed by substrate addition measured after 40 mins by spectrophotometric method; design: species or system Homo sapiens
[2] = organism: Homo sapiens; test: Potency index, ratio of acarbose IC50 to compound IC50 for alpha-glucosidase (unknown origin)

| IC50 [1] [µM] | Ratio IC50 [2] | SMILES |
| --- | --- | --- |
| 663 | – | C[C@H]1O[C@H](O[C@H]2[C@H](O)[C@@H](O)[C@@H](O[C@H]3[C@H](O)[C@@H](O)C(O)O[C@@H]3CO)O[C@@H]2CO)[C@H](O)[C@@H](O)[C@@H]1N[C@H]1C=C(CO)[C@@H](O)[C@H](O)[C@H]1O (stereo partly drawn) [ACARBOSE] |
| 9.07 | 70 | CC(=O)O[C@H]1C=C(CO)C(=O)[C@H](O)[C@H]1O |
